Measurements reported in US9079852B2, “NMDA receptor antagonists for neuroprotection” (Emory University, priority 2007, dated 2015).
One block for each compound: values may come before it.

Experiments:
[1] = biological target: rat alpha-1 adrenergic receptor; assay: alpha-1 adrenergic receptor binding by displacement of 3[H]-prazosin in rat brain membranes; conditions: 3[H]-prazosin displacement, read-out: α1 IC50
Description: Binding to the rat alpha-1 adrenergic receptor in rat brain membranes was determined by displacement of ^3[H]-prazosin (P. Greengrass and R. Bremner; Binding characteristics of 3H-prazosin to rat brain a-adrenergic receptors. Eur. J. Pharmacol. 1979, 55: 323-326). Compounds were incubated at 0.3 or 3 μM final concentration, in duplicate, and the amount of displaced ^3[H]-prazosin determined by liquid scintillation spectroscopy.
Binding IC50 values were determined from displacement curves (four-six concentrations, each concentration in duplicate) fit by a non-linear, least squares, regression analysis using MathIQ (ID Business Solutions Ltd., UK). The binding Ki's were determined from the IC50 according to the method of Cheng and Prusoff (Y. Cheng and W. H. Prusoff; Relationship between the inhibition constant (K1) and the concentration of inhibitor which causes 50 percent inhibition (IC50) of an enzymatic reaction. Biochem. Pharmacol. 1973, 22: 3099-3108).

[2] = Plasma half-life / plasma pharmacokinetics (Table G); format: in vivo; conditions: rat
Description: (§1) Animals were fasted overnight prior to dose administration and food returned to the animals two hours after dosing. Following IV dosing, blood samples (ca 200 μL) were collected into separate tubes containing anticoagulant (K-EDTA) via the orbital plexus at various times post administration. Plasma samples were prepared immediately after collection by centrifugation for ten minutes using a tabletop centrifuge, and stored at −80° C. Brain tissue was weighed, homogenized on ice in 50 mM phosphate buffer (2 ml per brain) and the homogenate stored at −80° C. Plasma and brain homogenate samples were extracted by the addition of 5 volumes of cold acetonitrile, mixed well by vortexing and centrifuged at 4000 rpm for 15 minutes. The supernatant fractions were analyzed by LC-MS/MS operating in multiple reaction monitoring mode (MRM). The amount of parent compound in each sample was calculated by comparing the response of the analyte in the sample to that of a standard curve.

[3] = Brain exposure / brain penetration (Table H); format: in vivo, rat; conditions: for BBB Pene Classification: classes High/Moderate/Low, key not given
Description: as §1, with “Rats (n=3 per dose) were administered compounds at a doses of 1-4 mg/kg in a single bolus i.v. infusion (2 ml/kg body weight) via the tail vein formulated in 2% dimethyl acetamide/98% 2-hydroxy-propyl cyclodextrin (5%). Animals” for “Animals”

[4] = Oral absorption (Table I); format: in vivo; conditions: rat, plasma, read-out: p.o. t½ hr (converted)
[5] = iv, 3 mg/kg, 3 MPK i.v., read-out: PK-i.v. t½ (converted)
[6] = iv, 1 mg/kg, 1 MPK i.v., read-out: PK-i.v. t½ (converted)

Structure (SMILES): O=c1ccc2cc(OC[C@@H](O)CN3CCN(c4ccc(Cl)cc4)CC3)ccc2[nH]1
IC50 [1]: ~350 nM

Structure (SMILES): O=c1[nH]c2ccc(OC[C@@H](O)CN3CCN(c4ccc(Cl)cc4)CC3)cc2[nH]1
IC50 [1]: ~350 nM

Structure (SMILES): CS(=O)(=O)Nc1ccc(OC[C@@H](O)CN2CCN(c3ccc(Cl)c(Cl)c3)CC2)cc1
half-life [2, 5]: 2.6 h

Structure (SMILES): O=C(COc1ccc2[nH]c(=O)[nH]c2c1)N1CCN(c2ccc(Cl)c(Cl)c2)CC1
half-life [2, 6]: 1.84 h

Structure (SMILES): O=c1[nH]c2ccc(OC[C@@H](O)CN3CCN(c4ccc(Cl)cc4)CC3)cc2o1 [drawing 744]
IC50 [1]: 620 nM

Structure (SMILES): NC(=O)Nc1ccc(OC[C@@H](O)CN2CCN(c3ccc(Cl)cc3)CC2)cc1 [drawing 746]
IC50 [1]: 340 nM

Structure (SMILES): NC(=O)Nc1ccc(OC[C@@H](O)CN2CCN(c3ccc(Cl)cc3)CC2)cc1 [drawing 754]
half-life [2, 6]: 2.7 h

Structure (SMILES): O=c1[nH]c2ccc(OC[C@@H](O)CN3CCN(c4ccc(Cl)cc4)CC3)cc2o1 [drawing 760]
half-life [2, 6]: 0.6 h

Structure (SMILES): Oc1ccc(OC[C@@H](O)CN2CCN(c3ccc(Cl)cc3)CC2)cc1 [drawing 768]
BBB Pene Classification [3]: High

Structure (SMILES): Cc1ccc(N2CCN(C[C@H](O)COc3ccc4[nH]c(=O)oc4c3)CC2)cc1 [drawing 769]
BBB Pene Classification [3]: Moderate

Structure (SMILES): NC(=O)Nc1ccc(OC[C@@H](O)CN2CCN(c3ccc(Cl)cc3)CC2)cc1 [drawing 771]
BBB Pene Classification [3]: Low

Structure (SMILES): O=C(COc1ccc2[nH]c(=O)oc2c1)N1CCN(c2ccc(Cl)c(Cl)c2)CC1 [drawing 775]
Kp at 15 min ([3]; rat, brain/plasma, iv, 1 mg/kg, 1 MPK i.v., 15 m, read-out: RATIO: Brain:plasma (Direct), 15 m): 0.04 | Kp at 30 min ([3]; rat, brain/plasma, iv, 1 mg/kg, 1 MPK i.v., 30 m, read-out: RATIO: Brain:plasma (Direct), 30 m): 0.06 | Kp at 1 h ([3]; rat, brain/plasma, iv, 1 mg/kg, 1 MPK i.v., 1 hr, read-out: RATIO: Brain:plasma (Direct), 1 hr): 0.07 | Kp at 3 h ([3]; rat, brain/plasma, iv, 1 mg/kg, 1 MPK i.v., 3 hr, read-out: RATIO: Brain:plasma (Direct), 3 hr): 0.1 | Kp ([3]; rat, brain/plasma, iv, 1 mg/kg, 1 MPK i.v., avg, read-out: RATIO: Brain:plasma (Direct), avg): 0.07

Structure (SMILES): O=c1[nH]c2ccc(OC[C@@H](O)CSc3nc4cc(Cl)c(Cl)cc4[nH]3)cc2o1 [drawing 777]
RATIO: Brain:plasma (Direct), 30 m ([3]; 3 MPK i.v., 30 m): BLQ (avg); BLQ (30 m), BLQ (1 hr), | RATIO: Brain:plasma (Direct), 1 hr ([3]; 3 MPK i.v., 1 hr): BLQ (avg); BLQ (30 m), BLQ (1 hr), | RATIO: Brain:plasma (Direct), avg ([3]; 3 MPK i.v., avg): BLQ (avg); BLQ (30 m), BLQ (1 hr), | BBB Pene Classification [3]: Moderate

Structure (SMILES): NC(=O)Nc1ccc(OC[C@@H](O)CN2CCN(c3ccc(Cl)cc3)CC2)cc1 [drawing 778]
half-life ([4]; 10 mg/kg, 10 MPK, 0-8 hr p.o.): 388 min

Structure (SMILES): Cc1ccc(N2CCN(C[C@H](O)COc3ccc4c(c3)CCC(=O)N4)CC2)cc1 [drawing 780]
half-life ([4]; 5 mg/kg, 5 MPK, 0-6 hr p.o.): 51 min

More lines, now with the values ahead:

IC50 [1]: 350 nM
Structure (SMILES): CS(=O)(=O)Nc1ccc(OC[C@@H](O)CN2CCN(c3ccc(Cl)cc3)CC2)cc1

IC50 [1]: ~300 nM
Structure (SMILES): O[C@H](COc1ccc2[nH]ncc2c1)CN1CCN(c2ccc(Cl)cc2)CC1

IC50 [1]: ~100 nM
Structure (SMILES): O=C1Cc2cc(OC[C@@H](O)CN3CCN(c4ccc(Cl)cc4)CC3)ccc2N1

IC50 [1]: ~150 nM
Structure (SMILES): O[C@H](COc1ccc2[nH]c(=S)[nH]c2c1)CN1CCN(c2ccc(Cl)cc2)CC1

IC50 [1]: ~100 nM
Structure (SMILES): O=C1CCc2cc(OC[C@@H](O)CN3CCN(c4ccc(Cl)cc4)CC3)ccc2N1

IC50 [1]: 720 nM
Structure (SMILES): Oc1ccc(OC[C@@H](O)CN2CCN(c3ccc(Cl)cc3)CC2)cc1 [drawing 743]

half-life [2, 6]: 2.4 h
Structure (SMILES): O=c1[nH]c2ccc(OC[C@@H](O)CN3CCN(c4ccc(F)c(F)c4)CC3)cc2[nH]1 [drawing 755]

half-life ([2]; ip, 60 mg/kg, 60 MPK i.p., read-out: PK t½ (hr) i.p.): > 2 h
Structure (SMILES): CS(=O)(=O)Nc1ccc(OC[C@@H](O)CN2CCN(c3ccc(F)c(F)c3)CC2)cc1 [drawing 757]

half-life [2, 6]: 0.8 h
Structure (SMILES): Cc1ccc(N2CCN(C[C@H](O)COc3ccc4c(c3)CCC(=O)N4)CC2)cc1 [drawing 758]

half-life [2, 6]: 0.6 h
Structure (SMILES): Oc1ccc(OC[C@@H](O)CN2CCN(c3ccc(Cl)cc3)CC2)cc1 [drawing 759]

half-life [2, 6]: 0.6 h
Structure (SMILES): Cc1ccc(N2CCN(C[C@H](O)COc3ccc4[nH]c(=O)oc4c3)CC2)cc1 [drawing 761]

half-life [2, 6]: 1.14 h
Structure (SMILES): NC(=O)Nc1ccc(OC[C@@H](O)CN2CCN(c3ccc(Cl)cc3)C2=O)cc1 [drawing 762]

half-life [2, 5]: ≤ 0.8 h
Structure (SMILES): O=C1N(C[C@H](O)COc2ccc(O)cc2)CCN1c1ccc(Cl)cc1 [drawing 763]

half-life ([2]; ip, 10 mg/kg, 10 MPK i.p., read-out: PK t½ (hr) i.p.): ~0.83 h
Structure (SMILES): O=C(COc1ccc2[nH]c(=O)oc2c1)N1CCN(c2ccc(Cl)c(Cl)c2)CC1 [drawing 765]

half-life [2, 5]: ≤ 0.8 h
Structure (SMILES): O=c1[nH]c2ccc(OC[C@@H](O)CSc3nc4cc(Cl)c(Cl)cc4[nH]3)cc2o1 [drawing 766]

half-life [2, 5]: ~0.5 h
Structure (SMILES): Oc1ccc(OC[C@@H](O)CSc2nc3cc(Cl)c(Cl)cc3[nH]2)cc1 [drawing 767]

BBB Pene Classification [3]: Moderate
Structure (SMILES): CS(=O)(=O)Nc1ccc(OC[C@@H](O)CN2CCN(c3ccc(F)c(F)c3)CC2)cc1 [drawing 770]

BBB Pene Classification [3]: High
Structure (SMILES): O=C1N(C[C@H](O)COc2ccc(O)cc2)CCN1c1ccc(Cl)cc1 [drawing 772]

RATIO: Brain:plasma (Direct) ([3]; 1 MPK i.v., no time point printed): Below Detection limit (~0) | BBB Pene Classification [3]: Low
Structure (SMILES): NC(=O)Nc1ccc(OC[C@@H](O)CN2CCN(c3ccc(Cl)cc3)C2=O)cc1 [drawing 773]

BBB Pene Classification [3]: Moderate
Structure (SMILES): O=C(COc1ccc2[nH]c(=O)oc2c1)N1CCN(c2ccc(Cl)c(Cl)c2)CC1 [drawing 774]

RATIO: Brain:plasma (Direct), 2 hr ([3]; 3 MPK i.v., 2 hr): BLQ | BBB Pene Classification [3]: High
Structure (SMILES): Oc1ccc(OC[C@@H](O)CSc2nc3cc(Cl)c(Cl)cc3[nH]2)cc1 [drawing 776]

half-life ([4]; 5 mg/kg, 5 MPK, 0-6 hr p.o.): 182 min
Structure (SMILES): O=c1[nH]c2ccc(OC[C@@H](O)CN3CCN(c4ccc(F)c(F)c4)CC3)cc2[nH]1 [drawing 779]
